Source: PMC10877733, “Discovery and Characterization of VU0542270, the First Selective Inhibitor of Vascular Kir6.1/SUR2B KATP Channels” (Molecular Pharmacology, 2024)

Columns and labels:
Kir3.1/Kir3.4 = target: T1, Kir3.1/Kir3.4 (Homo sapiens, UniProt P48544+P48549); assay: Thallium flux selectivity assay Kir3.1/Kir3.4; type: cell-based
T1 construct: expressed in transfected cells
T1 sequence (P48549 1-501): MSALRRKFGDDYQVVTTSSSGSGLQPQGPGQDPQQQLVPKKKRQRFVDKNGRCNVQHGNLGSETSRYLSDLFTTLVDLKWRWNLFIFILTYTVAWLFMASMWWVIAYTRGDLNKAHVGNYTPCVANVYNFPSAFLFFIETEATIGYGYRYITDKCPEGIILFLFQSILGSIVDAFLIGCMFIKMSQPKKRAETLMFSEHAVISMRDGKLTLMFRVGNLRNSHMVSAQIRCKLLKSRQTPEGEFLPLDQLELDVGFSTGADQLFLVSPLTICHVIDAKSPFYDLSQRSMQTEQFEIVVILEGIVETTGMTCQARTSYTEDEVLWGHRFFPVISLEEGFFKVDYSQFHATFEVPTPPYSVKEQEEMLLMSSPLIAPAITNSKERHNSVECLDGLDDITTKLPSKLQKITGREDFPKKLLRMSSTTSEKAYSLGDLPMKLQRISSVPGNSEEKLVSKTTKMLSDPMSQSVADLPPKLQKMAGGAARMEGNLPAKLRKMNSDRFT
T1 sequence (P48544 1-419): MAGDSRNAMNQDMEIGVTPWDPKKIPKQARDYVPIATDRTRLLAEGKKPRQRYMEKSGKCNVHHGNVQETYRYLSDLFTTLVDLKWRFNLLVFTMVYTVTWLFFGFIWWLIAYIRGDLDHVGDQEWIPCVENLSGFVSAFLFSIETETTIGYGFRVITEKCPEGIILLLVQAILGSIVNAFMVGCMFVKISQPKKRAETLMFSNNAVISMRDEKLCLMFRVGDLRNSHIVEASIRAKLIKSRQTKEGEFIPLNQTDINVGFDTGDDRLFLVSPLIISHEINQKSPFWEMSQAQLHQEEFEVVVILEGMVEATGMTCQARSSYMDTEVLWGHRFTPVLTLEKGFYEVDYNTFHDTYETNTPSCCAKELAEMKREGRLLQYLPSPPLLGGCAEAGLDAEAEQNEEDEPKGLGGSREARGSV
Protocol: (§1) Quantitative thallium flux assays of Kir6.1/SUR2B activity were performed essentially as described previously for Kir6.2/SUR1 ([Raphemot et al., 2014]; [Kharade et al., 2019]). Stable T-Rex-HEK293-Kir6.1/SUR2B cells or transiently transfected HEK293T cells were plated in polyamine-coated, clear-bottomed, black-walled 384-well plates and were cultured (37°C/5% CO2) overnight in Dulbecco’s modified Eagle’s medium (Gibco, Carlsbad, CA, 11995-065) containing 10% FBS (2 mM Penicillin-Streptomycin). The following day, cells were washed with assay buffer (i.e., Hanks’ balanced salt solution/20 mM HEPES) and loaded for 1 hour with thallium sensor dye Brilliant Thallium (Ion Bioscience, San Marcos, TX) at room temperature. Dye-loaded cells were washed with assay buffer and transferred to a Panoptic Kinetic Imaging Plate Reader (Wavefront Bioscience, Franklin, TN). Control and test compound treatments were for 4 minutes prior to adding 0.5 mM chloride-free thallium stimulus buffer (Ion Bioscience) to initiate thallium flux. […] Selectivity assays against other Kir channels were performed essentially as described previously ([Kharade et al., 2018]; [McClenahan et al., 2022]).

Kir4.1 = target: T2, Kir4.1 (Homo sapiens, UniProt P78508); assay: Thallium flux selectivity assay Kir4.1; type: cell-based
T2 construct: expressed in transfected cells
T2 sequence (P78508 1-379): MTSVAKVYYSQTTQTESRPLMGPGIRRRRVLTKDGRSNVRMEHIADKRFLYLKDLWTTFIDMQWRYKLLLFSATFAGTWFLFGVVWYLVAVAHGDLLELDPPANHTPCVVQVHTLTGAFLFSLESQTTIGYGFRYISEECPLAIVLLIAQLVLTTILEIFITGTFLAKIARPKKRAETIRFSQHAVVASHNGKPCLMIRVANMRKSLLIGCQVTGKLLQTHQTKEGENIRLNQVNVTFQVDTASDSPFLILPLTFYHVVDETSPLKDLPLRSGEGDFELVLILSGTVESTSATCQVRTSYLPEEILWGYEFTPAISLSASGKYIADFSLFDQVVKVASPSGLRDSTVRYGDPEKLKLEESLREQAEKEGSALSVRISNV
Protocol: as §1

[1] = Plasma binding by equilibrium dialysis, mouse; type: in vitro ADME; conditions: equilibrium dialysis 6 hours 37°C, read-out: Fu, plasma (mouse)
Protocol: Determination of VU0542270 fraction unbound (fu) in plasma from mouse, rat, and human was conducted in vitro via equilibrium dialysis using high-throughput dialysis (HTD) membrane plates. Dialysis membranes (four paired strips per HTD assay) were hydrated as described by the manufacturer and inserted into the HTD plate, which was assembled and prepared for sample addition by the dispensing of blank buffer [Delbecco’s phosphate buffered saline (DPBS), 100 µL/well] into the “top half” of each membrane-split well. VU0542270 was diluted into plasma from each species (5 µM final concentration), which was aliquoted in triplicate to the “bottom half” of the prepared HTD plate wells. The HTD plate was sealed and incubated for 6 hours at 37°C. Following incubation, each well (both top and bottom halves) was transferred (20 µL) to the corresponding well of a 96-shallow-well (V-bottom) plate. […]
fu was calculated as (analyte to IS mass spectrometry (MS) peak area ratio from Trans-buffer side)/(analyte to IS MS peak area ratio from Cis-plasma side). Mean values for each species were calculated from three replicates.

[2] = Brain homogenate binding by equilibrium dialysis, rat; type: in vitro ADME; conditions: read-out: Fu, brain (rat)
Protocol: Determination of VU0542270 fu in […] from mouse and rat was conducted using the same methodology and procedure as described for plasma protein binding assay with the following modifications: 1) a final compound concentration of 1 μM was used, and 2) naïve rat brains were homogenized in DPBS (1:3 composition of brain:DPBS, w/w) using a Mini-Bead Beater machine to obtain brain homogenate.
The diluted fraction unbound (fu2) in brain was calculated as (analyte to IS MS peak area ratio from Trans-buffer side)/(analyte to IS MS peak area ratio from Cis-brain homogenate side). Undiluted fraction unbound for the brain was calculated using the following equation: [drawing 1]
Mean values for each species were calculated from three replicates.

- IC50 (Kir3.1/Kir3.4): > 30 µM
- IC50 (Kir4.1): > 30 µM
- fraction unbound at 6 h, 5 µM [1]: 0.01
- fraction unbound at 6 h, 1 µM [2]: 0.02
SMILES: Cc1nc(-c2cccs2)sc1CNC(=O)Nc1cccs1 [VU0542270]
